We go through 1 compound from patent US9309537B2, “Chimeric rat produced using rat embryonic stem cells in the presence of an ES cell differentiation suppressant” (National Cancer Center, priority 2009, dated 2016).

This assay concerns rat ES cells. As to the kind of experiment: Culture of established rat ES cells with PAC factor or Y factor alone (colony morphology, alkaline phosphatase). Type of assay: cell-based. Particulars: ES cell culture medium on MEF.

For the compound `C[C@@H](N)[C@H]1CC[C@H](C(=O)Nc2ccncc2)CC1` [Y, Y-27632], the alkaline phosphatase activity entry is listed as “did not exhibit alkaline phosphatase activity”; the “undifferentiated state and colony morphology of established rat ES cells” value is “unable to maintain the undifferentiation state”.
